Results from patent US20200087516A1, “RED FLUORESCENT PROBE FOR USE IN DETECTION OF PEPTIDASE ACTIVITY” (The University of Tokyo, priority 2017, published 2020).

Columns and labels:
[1] = pKcycl measured values of existing rhodamine derivatives (model structures); assay type: physicochemical; conditions: Table 1, model structures
Source text: A formula that calculates pKcycl from the free energy difference of the closed-ring form/ring-opened form by the analyzed cationic reaction was derived, assuming that acid-base equilibrium (lateral direction in the model) is reached quickly enough in the HM groups and amino groups. When the calculation results of close-1, open-1 were used as this free energy difference, it was understood that pKcycl of existing derivatives is accurately reproduced.

[2] = Absorption/fluorescence spectrum measurement of the fluorescent probes (pKcycl from absorption spectra); assay type: physicochemical; conditions: computed from absorption spectra (FIG. 2, FIG. 4)
Source text: The absorption spectra and fluorescence spectra of fluorescent probe 1 (gGlu-MHM4ThPCR550) and fluorescent probe 2 (gGlu-HM3ThPSiR600) synthesized in Example 1 were each measured.
FIGS. 2 and 3 respectively show the absorption spectra and fluorescence spectra of fluorescent probe 1 (gGlu-MHM4ThPCR550) and, as a comparison, MHM4ThPCR550 having no gGlu group. The pKcycl values computed from the results in FIG. 2 are shown below in Table 3.
The absorption spectra of HM3ThPSiR600 and HM3ThPAcSiR600 having no gGlu group are also shown as a comparison.

[3] = Fluorescence quantum yield; assay type: physicochemical; conditions: pH 3.0
[4] = system: γ-Glutamyl transpeptidase (GGT); experiment: Enzyme assay of fluorescent probes: fluorescence intensity change on GGT addition; assay type: biochemical; conditions: 1 μM probe, 10 mM NaPi buffer pH 7.4, 37° C., 1.1 U GGT; 585 nm (probe 1), 613 nm (probe 2)
Method: γ-Glutamyl transpeptidase (GGT) was added to fluorescent probes 1 and 2 of the present invention, and the changes in fluorescence intensity were measured.
Fluorescent probe 1 or 2 was dissolved to make 1 μM in 2.5 mL of 10 mM NaPi buffer (pH 7.4) containing 0.03% DMSO. The solution, kept at 37° C., was stirred using a magnetic stirrer, and the fluorescence intensity was measured. 1.1 U of GGT was added two minutes after the start of measurement in experiments other than the negative control. The fluorescence intensity of fluorescent probe 1 at 585 nm was measured for a total of 6000 seconds and the fluorescence intensity of probe 2 at 613 nm was measured for a total of 2400 seconds, and plotted as a function of time elapsed. The excitation wavelength was 550 nm for fluorescent probe 1 and 593 nm for fluorescent probe 2; the slit width was 2.4 nm, 5.0 nm for both excitation and fluorescence, and the photomultiplier tube voltage was 700 V.
As a result, the fluorescence intensity was confirmed to increase due to addition of GGT in the case of both fluorescent probes 1 and 2. The quantum yield of fluorescent probe 1 was 0.58 at pH 3.0. The quantum yield of fluorescent probe 2 was 0.26 at pH 3.0.

[5] = system: SHIN3 cells disseminated intraperitoneally; experiment: In vivo imaging using cancer peritoneal dissemination model mice; conditions: 100 μM, 300 μL intraperitoneally, five minutes after administration
Method: A quantity of 300 μL of 100 μM fluorescent probes 1 and 2 was injected intraperitoneally into model mice that had been injected intraperitoneally with SHIN3. After five minutes, the mice were placed under isoflurane anesthesia and laparotomized, and imaging was conducted by a Maestro imager.
Fluorescence spectrum imaging was conducted using a mouse model in which SHIN3 cells had been disseminated intraperitoneally. SHIN3-disseminated model mice were established by intraperitoneally injecting 3×10^6 SHIN3 cells suspended in 300 μL of PBS(−) into seven-week-old female nude mice. The experiment was conducted 29-30 days after injection. The probe solution (100 μM, 300 μL) dissolved in PBS(−) was injected intraperitoneally and allowed to stand for five minutes. The mice were then anesthetized by inhalation of isoflurane, and the skin of the abdomen was cut open. The intestine was removed from the incision, placed on a black rubber plate, and the mesentery was spread. It was applied dropwise to the spread mesentery. Fluorescence imaging was conducted using a Maestro™ Ex In-Vivo Imaging System (CRi Inc.). […] An image with the wavelength of fluorescence derived from the probe cut out or an image spectrally unmixed with autofluorescence is shown. […]

pKcycl (Measured) [1] | Structure (SMILES) | pKcycl (Measured) [2] | quantum yield [3] | change in fluorescence intensity due to addition of GGT [4] | fluorescence imaging of tumors on the mesentery [5]
8.1 | N=c1ccc2c(-c3ccccc3CO)c3ccc(N)cc3oc-2c1 [HMRG] | – | – | – | –
– | CC1OC2(c3ccc(N)cc3C(C)(C)c3cc(NC(=O)CC[C@H](N)C(=O)O)ccc32)c2ccsc21 (stereo partly drawn) [fluorescent probe 1] | 6.3 | 0.58 | increase | small tumors having adequate contrast from the background could be observed
– | C[Si]1(C)c2cc(N)ccc2C2(OCc3sccc32)c2ccc(NC(=O)CC[C@H](N)C(=O)O)cc21 (stereo partly drawn) [fluorescent probe 2] | 5.4 | 0.26 | increase | small tumors having adequate contrast from the background could be observed
